In brackets after ≈: the same amount, converted by molar mass.
What was measured:
Micrococcus luteus = assay: Antibacterial activity against clinical isolate Micrococcus luteus assessed as reduction in microbial growth incubated for 24 hrs by broth microdilution method; type: functional
Staphylococcus aureus [1] = assay: Antibacterial activity against clinical isolate Staphylococcus aureus 4721 assessed as reduction in microbial growth incubated for 24 hrs by broth microdilution method; type: functional
Bacillus subtilis = assay: Antibacterial activity against Bacillus subtilis 168 assessed as reduction in microbial growth incubated for 24 hrs by broth microdilution method; type: functional
Staphylococcus aureus [2] = assay: Antibacterial activity against methicillin sensitive Staphylococcus aureus ATCC 29213 assessed as reduction in microbial growth incubated for 24 hrs by broth microdilution method; type: functional
[3] = tested on: Staphylococcus epidermidis; assay: Antibacterial activity against clinical isolate Staphylococcus epidermidis assessed as reduction in microbial growth incubated for 24 hrs by broth microdilution method; type: functional
Pseudomonas aeruginosa [4] = assay: Antibacterial activity against Pseudomonas aeruginosa ATCC 27853 assessed as reduction in microbial growth incubated for 24 hrs by broth microdilution method; type: functional
Escherichia coli [5] = assay: Antibacterial activity against Escherichia coli ATCC 25922 assessed as reduction in microbial growth incubated for 24 hrs by broth microdilution method; type: functional
Salmonella typhimurium = assay: Antibacterial activity against Salmonella typhimurium TA100 assessed as reduction in microbial growth incubated for 24 hrs by broth microdilution method; type: functional, Salmonella enterica subsp. enterica serovar Typhimurium; conditions: Salmonella enterica
[6] = tested on: Staphylococcus auricularis; assay: Antibacterial activity against clinical isolate Staphylococcus auricularis NKC 7 assessed as reduction in microbial growth incubated for 24 hrs by broth microdilution method; type: functional
[7] = tested on: Staphylococcus haemolyticus; assay: Antibacterial activity against clinical isolate Staphylococcus haemolyticus NKC 31/2 assessed as reduction in microbial growth incubated for 24 hrs by broth microdilution method; type: functional
[8] = tested on: Staphylococcus epidermidis; assay: Antibacterial activity against clinical isolate Staphylococcus epidermidis NKC 37/1 assessed as reduction in microbial growth incubated for 24 hrs by broth microdilution method; type: functional
Staphylococcus aureus [9] = assay: Antibacterial activity against clinical isolate Staphylococcus aureus 1812 assessed as reduction in microbial growth incubated for 24 hrs by broth microdilution method; type: functional
Staphylococcus aureus [10] = assay: Antibacterial activity against clinical isolate methicillin resistant Staphylococcus aureus 4771 assessed as reduction in microbial growth incubated for 24 hrs by broth microdilution method; type: functional
[11] = tested on: Staphylococcus haemolyticus; assay: Antibacterial activity against clinical isolate Staphylococcus haemolyticus 1464 assessed as reduction in microbial growth incubated for 24 hrs by broth microdilution method; type: functional
Enterococcus faecalis = assay: Antibacterial activity against clinical isolate Enterococcus faecalis 1465 assessed as reduction in microbial growth incubated for 24 hrs by broth microdilution method; type: functional
Escherichia coli [12] = assay: Antibacterial activity against clinical isolate Escherichia coli NKC 1 assessed as reduction in microbial growth incubated for 24 hrs by broth microdilution method; type: functional
Pseudomonas aeruginosa [13] = assay: Antibacterial activity against clinical isolate Pseudomonas aeruginosa NKC 17 assessed as reduction in microbial growth incubated for 24 hrs by broth microdilution method; type: functional
Cedecea davisae = assay: Antibacterial activity against clinical isolate Cedecea davisae 1813 assessed as reduction in microbial growth incubated for 24 hrs by broth microdilution method; type: functional
Klebsiella pneumoniae = assay: Antibacterial activity against clinical isolate Klebsiella pneumoniae 1678 assessed as reduction in microbial growth incubated for 24 hrs by broth microdilution method; type: functional
Klebsiella aerogenes = assay: Antibacterial activity against clinical isolate Enterobacter aerogenes NKC 8 assessed as reduction in microbial growth incubated for 24 hrs by broth microdilution method; type: functional
[14] = Cytotoxicity against human CHL assessed as reduction in cell viability incubated for 72 hrs by MTT assay; type: toxicity, cell-based; conditions: CHL cells
[15] = Cytotoxicity against human HSF assessed as reduction in cell viability incubated for 72 hrs by MTT assay; type: toxicity, cell-based; conditions: HSF cells
[16] = Cytotoxicity against human MSC assessed as reduction in cell viability incubated for 72 hrs by MTT assay; type: toxicity, cell-based; conditions: MSC cells

SMILES | MIC (Micrococcus luteus) | MIC (Staphylococcus aureus [1]) | MIC (Bacillus subtilis) | MIC (Staphylococcus aureus [2]) | MIC [3] | MIC (Pseudomonas aeruginosa [4]) | MIC (Escherichia coli [5]) | MIC (Salmonella typhimurium) | MIC [6] | MIC [7] | MIC [8] | MIC (Staphylococcus aureus [9]) | MIC (Staphylococcus aureus [10]) | MIC [11] | MIC (Enterococcus faecalis) | MIC (Escherichia coli [12]) | MIC (Pseudomonas aeruginosa [13]) | MIC (Cedecea davisae) | MIC (Klebsiella pneumoniae) | MIC (Klebsiella aerogenes) | also measured
CCn1cc(C(=O)O)c(=O)c2cc(F)c(N3CCN(Cc4nc(C)c5c(c4CO)COC(C)(C)O5)CC3)cc21 | 4 µg/mL | 4 µg/mL | 2 µg/mL | 2 µg/mL | 8 µg/mL | > 64 µg/mL | > 64 µg/mL | 2 µg/mL | 0.25 µg/mL | 32 µg/mL | 4 µg/mL | 8 µg/mL | 4 µg/mL | 4 µg/mL | > 64 µg/mL | 16 µg/mL | 64 µg/mL | 2 µg/mL | > 64 µg/mL | 32 µg/mL | CC50 at 72 h [14]: 7.05 µg/mL (≈ 13 µM); CC50 at 72 h [15]: 24.9 µg/mL (≈ 46 µM); CC50 at 72 h [16]: 16.2 µg/mL (≈ 30 µM)
Cc1ncc(CN2CCN(c3cc4c(cc3F)c(=O)c(C(=O)O)cn4C3CC3)CC2)c2c1OCOC2.Cl | 16 µg/mL | 0.13 µg/mL | 2 µg/mL | 1 µg/mL | 0.5 µg/mL | 32 µg/mL | 8 µg/mL | 0.5 µg/mL | 0.03 µg/mL | 8 µg/mL | 0.25 µg/mL | 0.25 µg/mL | 2 µg/mL | 0.13 µg/mL | 8 µg/mL | 2 µg/mL | 32 µg/mL | 0.03 µg/mL | 16 µg/mL | 16 µg/mL | CC50 at 72 h [14]: 14.9 µg/mL; CC50 at 72 h [15]: 40.3 µg/mL; CC50 at 72 h [16]: 69.5 µg/mL
COc1c(N2C[C@@H]3CCCN(Cc4cnc(C)c5c4COC(C)(C)O5)[C@@H]3C2)c(F)cc2c(=O)c(C(=O)O)cn(C3CC3)c12 | 4 µg/mL | 0.5 µg/mL | 2 µg/mL | 2 µg/mL | 2 µg/mL | > 64 µg/mL | > 64 µg/mL | 4 µg/mL | 0.03 µg/mL | 32 µg/mL | 1 µg/mL | 1 µg/mL | 4 µg/mL | 0.5 µg/mL | 32 µg/mL | 4 µg/mL | > 64 µg/mL | 0.5 µg/mL | 32 µg/mL | 64 µg/mL | CC50 at 72 h [14]: 2.85 µg/mL (≈ 4.81 µM); CC50 at 72 h [15]: 3.44 µg/mL (≈ 5.8 µM); CC50 at 72 h [16]: 3.84 µg/mL (≈ 6.48 µM)
CCCC1OCc2c(CN3CCC[C@H]4CN(c5c(F)cc6c(=O)c(C(=O)O)cn(C7CC7)c6c5OC)C[C@H]43)cnc(C)c2O1 (stereo partly drawn) | 2 µg/mL | 2 µg/mL | 2 µg/mL | 2 µg/mL | 2 µg/mL | > 64 µg/mL | > 64 µg/mL | 4 µg/mL | 0.13 µg/mL | 64 µg/mL | 4 µg/mL | 4 µg/mL | 4 µg/mL | 2 µg/mL | 64 µg/mL | 4 µg/mL | > 64 µg/mL | 2 µg/mL | > 64 µg/mL | 64 µg/mL | CC50 at 72 h [14]: 2.46 µg/mL (≈ 4.05 µM); CC50 at 72 h [15]: 2.34 µg/mL (≈ 3.86 µM); CC50 at 72 h [16]: 2.91 µg/mL (≈ 4.8 µM)
COc1c(N2C[C@@H]3CCCN(Cc4c(CO)nc(C)c(O)c4CO)[C@@H]3C2)c(F)cc2c(=O)c(C(=O)O)cn(C3CC3)c12.Cl | 2 µg/mL | 0.25 µg/mL | 2 µg/mL | 2 µg/mL | 2 µg/mL | > 64 µg/mL | 2 µg/mL | 2 µg/mL | 0.06 µg/mL | 8 µg/mL | 0.25 µg/mL | 0.5 µg/mL | 8 µg/mL | 0.25 µg/mL | 4 µg/mL | 4 µg/mL | 32 µg/mL | 0.5 µg/mL | 64 µg/mL | 8 µg/mL | CC50 at 72 h [14]: 17.6 µg/mL; CC50 at 72 h [15]: 35.2 µg/mL; CC50 at 72 h [16]: 20.6 µg/mL
Cc1nc(CO)c(CN2CCN(c3cc4c(cc3F)c(=O)c(C(=O)O)cn4C3CC3)CC2)c(CO)c1O.Cl | 2 µg/mL | 2 µg/mL | 4 µg/mL | 0.5 µg/mL | 8 µg/mL | > 64 µg/mL | 64 µg/mL | 4 µg/mL | 0.25 µg/mL | 16 µg/mL | 1 µg/mL | 4 µg/mL | 2 µg/mL | 4 µg/mL | 32 µg/mL | 0.5 µg/mL | 16 µg/mL | 1 µg/mL | 8 µg/mL | 2 µg/mL | CC50 at 72 h [14]: 31.8 µg/mL; CC50 at 72 h [15]: 38 µg/mL; CC50 at 72 h [16]: 52.6 µg/mL

From ChEMBL document CHEMBL5634112, “Synthesis and biological evaluation of fluoroquinolones containing a pyridoxine derivatives moiety” (Eur J Med Chem, 2023)
